These are literature values, as cited in patent US8877766B2, “Neuroprotective multifunctional antioxidants and their monofunctional analogs” (priority 2013, dated 2014).

One series has as its system diabetic cataract. The following applies: diabetic rats; cited from earlier work.
A further series concerns radiation cataract. The following applies: Long-Evans rats, 15 Gy whole head gamma irradiation; cited from earlier work.
Series [1] concerns light-induced retinal damage. The following applies: rats; cited from earlier work.

Regarding `CN(C)S(=O)(=O)N1CC(=O)N(c2ncc(O)cn2)C(=O)C1` [JHX-4], in the series on diabetic cataract, the progression of cataracts entry is reported as “delayed the progression of cataracts”. For the same compound, in the series with radiation cataract, the “cataract formation after irradiation” value is given as “significantly delayed cataract formation”. Also, in series [1], the “protection against light-induced retinal damage” value is reported as “protects rats against light-induced retinal damage”.
